The target of assay [1] is human FGFR-1 (Homo sapiens, UniProt P11362). Nature of the assay: FGFR-1 high ATP kinase assay (TR-FRET).
Assay [2] deals with human FGFR-3 (Homo sapiens (Human), UniProt P22607). As to the kind of experiment: FGFR-3 kinase assay (TR-FRET). The class given is biochemical. The settings on record: 10 μM ATP, 15 min pre-incubation with enzyme.
Assay [3] has as its target human mTOR (Homo sapiens (Human), UniProt P42345). Nature of the assay: mTOR kinase assay (TR-FRET, for comparative purposes). Format: biochemical. Particulars: for inhibition at 1 µM: read-out: mTOR % inhibition @ 1 μM, 1 μM test compound, 40 μM ATP, mean values. How it is done: mTOR inhibitory activity of the compounds of the present invention was quantified employing the TR-FRET based mTOR assay as described in the following paragraphs:
Test compounds were dissolved in DMSO to generate 10 mM stock solutions. These solutions were first 10-fold diluted by 100% DMSO to get 1 mM solutions in 100% DMSO, then 100-fold diluted by 50% DMSO to get 10 μM solutions in 50% DMSO.
(final concentration in the 10 μl assay volume=1 nM) in FRET buffer.
For this, the fluorescence emissions at 495 nm and 520 nm after excitation at 340 nm was measured in an Envision 2104 multilabel reader (Perkin-Elmer).

Each structure is given as a SMILES string. Counter-ions that a name gives are not always drawn.

human mTOR, sequence (P42345 1360-2549): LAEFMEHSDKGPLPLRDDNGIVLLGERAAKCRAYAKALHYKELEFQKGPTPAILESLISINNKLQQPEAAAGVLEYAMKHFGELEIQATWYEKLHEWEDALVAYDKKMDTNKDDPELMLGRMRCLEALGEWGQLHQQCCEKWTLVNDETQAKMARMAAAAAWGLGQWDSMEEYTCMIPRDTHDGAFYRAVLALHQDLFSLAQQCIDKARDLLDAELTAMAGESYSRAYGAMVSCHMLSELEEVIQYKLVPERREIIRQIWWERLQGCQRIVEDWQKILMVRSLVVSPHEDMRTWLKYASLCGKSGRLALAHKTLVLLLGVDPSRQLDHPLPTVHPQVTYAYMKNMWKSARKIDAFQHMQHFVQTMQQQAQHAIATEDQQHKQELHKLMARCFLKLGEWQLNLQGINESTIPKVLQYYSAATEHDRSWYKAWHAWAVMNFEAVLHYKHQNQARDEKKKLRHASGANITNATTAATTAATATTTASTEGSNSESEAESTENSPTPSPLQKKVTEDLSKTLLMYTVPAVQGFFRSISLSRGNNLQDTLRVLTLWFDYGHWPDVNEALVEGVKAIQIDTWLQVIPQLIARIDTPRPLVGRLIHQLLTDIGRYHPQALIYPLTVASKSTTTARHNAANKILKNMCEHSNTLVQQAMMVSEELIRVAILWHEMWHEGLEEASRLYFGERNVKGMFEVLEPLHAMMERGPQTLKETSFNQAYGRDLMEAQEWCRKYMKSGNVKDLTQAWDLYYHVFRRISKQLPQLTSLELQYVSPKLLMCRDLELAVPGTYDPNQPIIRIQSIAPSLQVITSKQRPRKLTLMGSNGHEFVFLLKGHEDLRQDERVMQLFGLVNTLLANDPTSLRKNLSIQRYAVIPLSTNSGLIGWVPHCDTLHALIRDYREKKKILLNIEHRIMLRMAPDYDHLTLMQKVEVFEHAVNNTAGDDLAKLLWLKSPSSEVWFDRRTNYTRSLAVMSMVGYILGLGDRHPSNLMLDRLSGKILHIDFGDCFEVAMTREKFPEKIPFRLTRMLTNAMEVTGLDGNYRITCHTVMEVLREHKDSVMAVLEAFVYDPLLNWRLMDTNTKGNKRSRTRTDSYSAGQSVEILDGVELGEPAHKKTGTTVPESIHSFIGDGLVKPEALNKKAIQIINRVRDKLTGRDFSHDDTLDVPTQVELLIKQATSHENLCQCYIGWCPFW
human FGFR-3, sequence (P22607 397-806): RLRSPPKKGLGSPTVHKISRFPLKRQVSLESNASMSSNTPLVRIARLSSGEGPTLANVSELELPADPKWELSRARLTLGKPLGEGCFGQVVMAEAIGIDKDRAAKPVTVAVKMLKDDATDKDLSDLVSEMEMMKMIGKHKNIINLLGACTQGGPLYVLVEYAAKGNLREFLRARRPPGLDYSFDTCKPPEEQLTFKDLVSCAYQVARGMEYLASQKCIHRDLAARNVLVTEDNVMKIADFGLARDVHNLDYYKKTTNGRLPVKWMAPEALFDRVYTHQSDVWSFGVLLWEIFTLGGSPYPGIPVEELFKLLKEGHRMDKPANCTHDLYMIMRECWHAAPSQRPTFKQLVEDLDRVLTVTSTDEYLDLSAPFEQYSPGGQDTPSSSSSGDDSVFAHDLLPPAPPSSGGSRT
human FGFR-1, sequence (P11362 22-822 limits assumed): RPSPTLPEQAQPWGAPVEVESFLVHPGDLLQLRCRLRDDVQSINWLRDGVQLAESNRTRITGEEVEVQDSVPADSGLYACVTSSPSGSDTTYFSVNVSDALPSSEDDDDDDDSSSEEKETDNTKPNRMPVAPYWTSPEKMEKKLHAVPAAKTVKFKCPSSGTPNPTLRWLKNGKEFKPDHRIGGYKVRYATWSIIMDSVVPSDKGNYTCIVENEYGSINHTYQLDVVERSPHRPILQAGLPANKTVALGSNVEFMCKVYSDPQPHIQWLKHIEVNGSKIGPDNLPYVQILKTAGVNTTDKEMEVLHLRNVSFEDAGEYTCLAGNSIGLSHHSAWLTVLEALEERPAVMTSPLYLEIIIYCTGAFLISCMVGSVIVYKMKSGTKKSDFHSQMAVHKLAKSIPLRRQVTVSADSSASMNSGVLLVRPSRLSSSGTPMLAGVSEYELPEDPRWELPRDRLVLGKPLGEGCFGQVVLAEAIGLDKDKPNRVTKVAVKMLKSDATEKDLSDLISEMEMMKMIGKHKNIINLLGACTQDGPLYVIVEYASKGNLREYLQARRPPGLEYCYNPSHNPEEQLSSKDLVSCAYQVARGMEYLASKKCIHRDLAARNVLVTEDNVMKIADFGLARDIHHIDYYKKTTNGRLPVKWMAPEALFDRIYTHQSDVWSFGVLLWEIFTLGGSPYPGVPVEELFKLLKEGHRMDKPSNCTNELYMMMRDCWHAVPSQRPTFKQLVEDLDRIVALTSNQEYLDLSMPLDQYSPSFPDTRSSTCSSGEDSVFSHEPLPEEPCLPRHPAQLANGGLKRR

`CNC(=O)CNCc1cc(-c2cc3cc(C)cc(OC)c3s2)c2c(N)ncnn12` [Example 28]: the IC50 in assay [1] is 83.2 nM; in assay [2], 63.7 nM. For the same compound, the inhibition at 1 µM in assay [3] stood at 6.9%.
In the same order, the values of `COc1cc(C)cc2cc(-c3cc(CN4CC[C@@H](N)C4)n4ncnc(N)c34)sc12` [Example 53] are 94.1 nM, 145 nM and 12.6%.
The matching figures for `COc1cc(C)cc2cc(-c3cc(CN4CCC[C@@H](N)C4)n4ncnc(N)c34)sc12` [Example 55]: 16.2 nM, 18.7 nM and 24.6%.
The matching figures for `COc1cc(C)cc2cc(-c3cc(CNC(C)(C)CN4CCCC4)n4ncnc(N)c34)sc12` [Example 57]: 32.5 nM, 53.3 nM and 16.2%.
Take `COc1cc(C)cc2cc(-c3cc(CNCCN4CCC(O)CC4)n4ncnc(N)c34)sc12` [Example 58]: the half-inhibitory concentration (IC50) was 36.2 nM in assay [1] and 46.7 nM in assay [2]. Further, in assay [3], the inhibition at 1 µM came to 12.6%.
For the compound `COc1cc(C)cc2cc(-c3cc(CN4CCCN(CCO)CC4)n4ncnc(N)c34)sc12` [Example 59], the IC50 in assay [1] turned out to be 39.4 nM; in assay [2], 47.7 nM. In addition, in assay [3], the inhibition at 1 µM turned out to be 7%.
The matching figures for `COc1cc(C)cc2cc(-c3cc(CN4CCC(N5CCCC5)C4)n4ncnc(N)c34)sc12` (stereo not drawn) [Example 60]: 39.6 nM, 58.6 nM and 11.3%.
The matching figures for `COc1cc(C)cc2cc(-c3cc(CNCC4CCN(C)CC4)n4ncnc(N)c34)sc12` [Example 61]: 39.7 nM, 43.5 nM and 8.6%.
As to `COc1cc(C)cc2cc(-c3cc(CN4CCN(CC(N)=O)CC4)n4ncnc(N)c34)sc12` [Example 64], the IC50 in assay [1] was determined as 48.9 nM; in assay [2] it was 56.4 nM. Moreover, in assay [3], the inhibition at 1 µM was 28.2%.
Regarding `COc1cc(C)cc2cc(-c3cc(CNCCC4CCCN4C)n4ncnc(N)c34)sc12` (stereo not drawn) [Example 65], the figures for the IC50 in assay [1] and in assay [2] were 49.1 nM and 49.5 nM, respectively. In assay [3], the inhibition at 1 µM came to 5.9%.
The matching figures for `COc1cc(C)cc2cc(-c3cc(CN4CC(N(C)C)C4)n4ncnc(N)c34)sc12` [Example 66]: 49.6 nM, 67.2 nM and 5.9%.
As to `COc1cc(C)cc2cc(-c3cc(CN(C)CCC(N)=O)n4ncnc(N)c34)sc12` [Example 67], the results for the IC50 in assay [1] and in assay [2] were 53.1 nM and 28.4 nM, respectively. Further, the inhibition at 1 µM in assay [3] worked out at 48%.
The matching figures for `COc1cc(C)cc2cc(-c3cc(CN4CCN(C(N)=O)CC4)n4ncnc(N)c34)sc12` [Example 68]: 55 nM, 29.3 nM and 43.1%.
The matching figures for `COc1cc(C)cc2cc(-c3cc(CNC4CCN(C)CC4)n4ncnc(N)c34)sc12` [Example 69]: 59.5 nM, 59.9 nM and 4.6%.
In the same order, the values of `COc1cc(C)cc2cc(-c3cc(CN4CCCC(O)C4)n4ncnc(N)c34)sc12` (stereo not drawn) [Example 70] are 62 nM, 57.7 nM and 27.9%.
Take `COc1cc(C)cc2cc(-c3cc(CN4CC(N5CCCC5)C4)n4ncnc(N)c34)sc12` [Example 71]: the 50% inhibitory concentration (IC50) in assay [1] was found to be 63.4 nM; in assay [2] it was 79.3 nM. Further, in assay [3], the inhibition at 1 µM turned out to be 21.5%.
For the compound `COc1cc(C)cc2cc(-c3cc(CNCCO)n4ncnc(N)c34)sc12` [Example 72], the IC50 in assay [1] worked out at 65 nM; in assay [2] it was 47.2 nM. In addition, in assay [3] (1 μM test compound, 40 μM ATP, mean values), the “mTOR % inhibition @ 1 μM” value was “no inhib. effect detect”.
As to `COc1cc(C)cc2cc(-c3cc(CN4CCC(CO)CC4)n4ncnc(N)c34)sc12` [Example 73], the IC50 came to 66.6 nM in assay [1] and 64.8 nM in assay [2]. In assay [3], the inhibition at 1 µM was found to be 17.2%.
The matching figures for `COc1cc(C)cc2cc(-c3cc(CN(C)C4CCS(=O)(=O)C4)n4ncnc(N)c34)sc12` (stereo not drawn) [Example 74]: 68.3 nM, 87.1 nM and 46.9%.
Consider `COc1cc(C)cc2cc(-c3cc(CNCC(C)(C)N4CCOCC4)n4ncnc(N)c34)sc12` [Example 75], for which the IC50 stood at 74.3 nM in assay [1] and 115 nM in assay [2]. Further, the inhibition at 1 µM in assay [3] came out at 18.6%.
In the same order, the values of `COCCN(C)Cc1cc(-c2cc3cc(C)cc(OC)c3s2)c2c(N)ncnn12` [Example 76] are 83 nM, 73.7 nM and 29.9%.
The matching figures for `CCN(Cc1cc(-c2cc3cc(C)cc(OC)c3s2)c2c(N)ncnn12)C(C)CO` (stereo not drawn) [Example 77]: 84.1 nM, 82.3 nM and 20.2%.
The matching figures for `COc1cc(C)cc2cc(-c3cc(CNC4CCS(=O)(=O)C4)n4ncnc(N)c34)sc12` (stereo not drawn) [Example 78]: 86.6 nM, 95.8 nM and 35.6%.
As to `COc1cc(C)cc2cc(-c3cc(CN4CCCC4c4ccc(C)cc4)n4ncnc(N)c34)sc12` (stereo not drawn) [Example 79], the 50% inhibitory concentration (IC50) came to 93 nM in assay [1] and 48.6 nM in assay [2]. Further, the inhibition at 1 µM in assay [3] was 16.7%.
In the same order, the values of `COc1cc(C)cc2cc(-c3cc(CNC4CCN(C(C)C)CC4)n4ncnc(N)c34)sc12` [Example 80] are 93.4 nM, 120 nM and 3%.
In the same order, the values of `COc1cc(C)cc2cc(-c3cc(CNC4CC4)n4ncnc(N)c34)sc12` [Example 81] are 93.4 nM, 110 nM and 44.7%.
As for `COc1cc(C)cc2cc(-c3cc(CN4CCC(OC)CC4)n4ncnc(N)c34)sc12` [Example 82], the IC50 is 97.3 nM in assay [1] and 71.9 nM in assay [2]. The inhibition at 1 µM in assay [3] was 18.7%.
In the same order, the values of `COc1cc(C)cc2cc(-c3cc(CNC4CCCC4O)n4ncnc(N)c34)sc12` (stereo not drawn) [Example 83] are 98.6 nM, 97.9 nM and 18.3%.
`COc1cc(C)cc2cc(-c3cc(CN4CC[C@@H](O)C4)n4ncnc(N)c34)sc12` [Example 84]: the IC50 amounted to 38.9 nM in assay [1] and 39.1 nM in assay [2]. In addition, in assay [3], the inhibition at 1 µM came to 15.3%.
The matching figures for `COc1cc(C)cc2cc(-c3cc(CN[C@@H](C)C(N)=O)n4ncnc(N)c34)sc12` [Example 85]: 45.4 nM, 22.1 nM and 28.2%.
As for `COc1cc(C)cc2cc(-c3cc(CN[C@H]4CC[C@@H](N(C)C)CC4)n4ncnc(N)c34)sc12` [Example 87], the IC50 in assay [1] worked out at 13.2 nM; in assay [2], 29.1 nM. For the same compound, in assay [3], the inhibition at 1 µM stood at 21.9%.
In the same order, the values of `COc1cc(C)cc2cc(-c3cc(CN4CCC(O)CC4)n4ncnc(N)c34)sc12` [Example 88] are 15.7 nM, 21.3 nM and 29.5%.
The matching figures for `COc1cc(C)cc2cc(-c3cc(CN4CCCN(C)CC4)n4ncnc(N)c34)sc12` [Example 89]: 24.9 nM, 28.2 nM and 28.7%.
For the compound `COc1cc(C)cc2cc(-c3cc(CN4CC[C@@H](N(C)C)C4)n4ncnc(N)c34)sc12` [Example 90], the IC50 stood at 26 nM in assay [1] and 30.3 nM in assay [2]. Further, the inhibition at 1 µM in assay [3] turned out to be 22.7%.
The matching figures for `COc1cc(C)cc2cc(-c3cc(CN4CC(O)C4)n4ncnc(N)c34)sc12` [Example 91]: 36.9 nM, 23.9 nM and 17.7%.
The matching figures for `COc1cc(C)cc2cc(-c3cc(CN[C@@H](CC(N)=O)C(=O)O)n4ncnc(N)c34)sc12` [Example 92]: 46.2 nM, 11.7 nM and 19.9%.
In the same order, the values of `COc1cc(C)cc2cc(-c3cc(C(=O)N4CC[C@](C)(N)C4)n4ncnc(N)c34)sc12` [Example 97, [4-Amino-5-(7-methoxy-5-methyl-1-benzothiophen-2-yl)pyrrolo[2,1-f][1,2,4]triazin-7-yl][(3S)-3-amino-3-methylpyrrolidin-1-yl]methanone dihydrochloride] are 4.7 nM, 9.9 nM and 16.7%.
For the compound `COc1cc(C)cc2cc(-c3cc(C(=O)N4CCC(N(C)C)C4)n4ncnc(N)c34)sc12` (stereo not drawn) [Example 100], the IC50 in assay [1] turned out to be 20.7 nM; in assay [2], 35.9 nM. Also, in assay [3], the inhibition at 1 µM was determined as 15.9%.
In the same order, the values of `COc1cc(C)cc2cc(-c3cc(C(=O)N4CCC(O)CC4)n4ncnc(N)c34)sc12` [Example 101] are 29.8 nM, 29.1 nM and 24.9%.
The matching figures for `COc1cc(C)cc2cc(-c3cc(C(=O)N4CCNC(C(N)=O)C4)n4ncnc(N)c34)sc12` (stereo not drawn) [Example 102]: 48.8 nM, 89.6 nM and 12.8%.
In the same order, the values of `COc1cc(C)cc2cc(-c3cc(C(=O)N4CCNC(C)(C)C4)n4ncnc(N)c34)sc12` [Example 103] are 51.7 nM, 114 nM and 9.2%.

Values taken from US9475815B2, “Substituted benzothienyl-pyrrolotriazines and uses thereof” (Bayer Intellectual Property GmbH, priority 2012, dated 2016).
